BigSolDB 2.1

[1] = in morpholine-4-carbaldehyde, 293.2 K
[2] = in morpholine-4-carbaldehyde, 298.2 K
[3] = in morpholine-4-carbaldehyde, 303.2 K
[4] = in morpholine-4-carbaldehyde, 308.2 K
[5] = in morpholine-4-carbaldehyde, 313.2 K
[6] = in morpholine-4-carbaldehyde, 318.2 K
[7] = in morpholine-4-carbaldehyde, 323.2 K
[8] = in morpholine-4-carbaldehyde, 328.2 K

C[C@]12CC[C@@H]3c4ccc(O)cc4CC[C@H]3[C@@H]1C[C@@H](O)[C@@H]2O
solubility (mole fraction) (in 2-aminoethanol, 293.2 K): 0.0111 | solubility (mole fraction) (in 2-aminoethanol, 298.2 K): 0.0127 | solubility (mole fraction) (in 2-aminoethanol, 303.2 K): 0.0148 | solubility (mole fraction) (in 2-aminoethanol, 308.2 K): 0.018 | solubility (mole fraction) (in 2-aminoethanol, 313.2 K): 0.0214 | solubility (mole fraction) (in 2-aminoethanol, 318.2 K): 0.0254 | solubility (mole fraction) (in 2-aminoethanol, 323.2 K): 0.0314 | solubility (mole fraction) (in 2-aminoethanol, 328.2 K): 0.0363 | solubility (mole fraction) (in DMF, 293.2 K): 0.00112 | solubility (mole fraction) (in DMF, 298.2 K): 0.00158 | solubility (mole fraction) (in DMF, 303.2 K): 0.00258 | solubility (mole fraction) (in DMF, 308.2 K): 0.00426 | solubility (mole fraction) (in DMF, 313.2 K): 0.00581 | solubility (mole fraction) (in DMF, 318.2 K): 0.00958 | solubility (mole fraction) (in DMF, 323.2 K): 0.013 | solubility (mole fraction) (in DMF, 328.2 K): 0.018 | solubility (mole fraction) (in NMP, 293.2 K): 0.000415 | solubility (mole fraction) (in NMP, 298.2 K): 0.000677 | solubility (mole fraction) (in NMP, 303.2 K): 0.00105 | solubility (mole fraction) (in NMP, 308.2 K): 0.00174 | solubility (mole fraction) (in NMP, 313.2 K): 0.00275 | solubility (mole fraction) (in NMP, 318.2 K): 0.00364 | solubility (mole fraction) (in NMP, 323.2 K): 0.00491 | solubility (mole fraction) (in NMP, 328.2 K): 0.00718 | solubility (mole fraction) [1]: 6.2e-05 | solubility (mole fraction) [2]: 0.00023 | solubility (mole fraction) [3]: 0.000652 | solubility (mole fraction) [4]: 0.00147 | solubility (mole fraction) [5]: 0.00343 | solubility (mole fraction) [6]: 0.00495 | solubility (mole fraction) [7]: 0.00726 | solubility (mole fraction) [8]: 0.0107 | solubility (mole fraction) (in n-dodecane, 293.2 K): 0.00072 | solubility (mole fraction) (in n-dodecane, 298.2 K): 0.000779 | solubility (mole fraction) (in n-dodecane, 303.2 K): 0.00092 | solubility (mole fraction) (in n-dodecane, 308.2 K): 0.000956 | solubility (mole fraction) (in n-dodecane, 313.2 K): 0.00128 | solubility (mole fraction) (in n-dodecane, 318.2 K): 0.00179 | solubility (mole fraction) (in n-dodecane, 323.2 K): 0.00243 | solubility (mole fraction) (in n-dodecane, 328.2 K): 0.00285 | solubility (mole fraction) (in n-hexadecane, 293.2 K): 0.00114 | solubility (mole fraction) (in n-hexadecane, 298.2 K): 0.00147 | solubility (mole fraction) (in n-hexadecane, 303.2 K): 0.00175 | solubility (mole fraction) (in n-hexadecane, 308.2 K): 0.00219 | solubility (mole fraction) (in n-hexadecane, 313.2 K): 0.00251 | solubility (mole fraction) (in n-hexadecane, 318.2 K): 0.00299 | solubility (mole fraction) (in n-hexadecane, 323.2 K): 0.00335 | solubility (mole fraction) (in n-hexadecane, 328.2 K): 0.00382 | solubility (mole fraction) (in n-nonanol, 293.2 K): 0.0074 | solubility (mole fraction) (in n-nonanol, 298.2 K): 0.00863 | solubility (mole fraction) (in n-nonanol, 303.2 K): 0.0104 | solubility (mole fraction) (in n-nonanol, 308.2 K): 0.0116 | solubility (mole fraction) (in n-nonanol, 313.2 K): 0.0131 | solubility (mole fraction) (in n-nonanol, 318.2 K): 0.0147 | solubility (mole fraction) (in n-nonanol, 323.2 K): 0.0168 | solubility (mole fraction) (in n-nonanol, 328.2 K): 0.0199 | solubility (mole fraction) (in n-octane, 293.2 K): 0.000621 | solubility (mole fraction) (in n-octane, 298.2 K): 0.000735 | solubility (mole fraction) (in n-octane, 303.2 K): 0.000873 | solubility (mole fraction) (in n-octane, 308.2 K): 0.00103 | solubility (mole fraction) (in n-octane, 313.2 K): 0.00123 | solubility (mole fraction) (in n-octane, 318.2 K): 0.00138 | solubility (mole fraction) (in n-octane, 323.2 K): 0.00152 | solubility (mole fraction) (in n-octane, 328.2 K): 0.00186 | solubility (mole fraction) (in n-octanol, 293.2 K): 0.00593 | solubility (mole fraction) (in n-octanol, 298.2 K): 0.00678 | solubility (mole fraction) (in n-octanol, 303.2 K): 0.00747 | solubility (mole fraction) (in n-octanol, 308.2 K): 0.00868 | solubility (mole fraction) (in n-octanol, 313.2 K): 0.0104 | solubility (mole fraction) (in n-octanol, 318.2 K): 0.0121 | solubility (mole fraction) (in n-octanol, 323.2 K): 0.0147 | solubility (mole fraction) (in n-octanol, 328.2 K): 0.0171 | solubility (mole fraction) (in n-pentanol, 293.2 K): 0.00243 | solubility (mole fraction) (in n-pentanol, 298.2 K): 0.00285 | solubility (mole fraction) (in n-pentanol, 303.2 K): 0.00367 | solubility (mole fraction) (in n-pentanol, 308.2 K): 0.00468 | solubility (mole fraction) (in n-pentanol, 313.2 K): 0.00594 | solubility (mole fraction) (in n-pentanol, 318.2 K): 0.00809 | solubility (mole fraction) (in n-pentanol, 323.2 K): 0.00967 | solubility (mole fraction) (in n-pentanol, 328.2 K): 0.0121 | solubility (mole fraction) (in sec-butanol, 293.2 K): 0.00189 | solubility (mole fraction) (in sec-butanol, 298.2 K): 0.0025 | solubility (mole fraction) (in sec-butanol, 303.2 K): 0.0032 | solubility (mole fraction) (in sec-butanol, 308.2 K): 0.00403 | solubility (mole fraction) (in sec-butanol, 313.2 K): 0.00453 | solubility (mole fraction) (in sec-butanol, 318.2 K): 0.00533 | solubility (mole fraction) (in sec-butanol, 323.2 K): 0.00668 | solubility (mole fraction) (in sec-butanol, 328.2 K): 0.00812 | solubility (mole fraction) (in water, 293.2 K): 0.000115 | solubility (mole fraction) (in water, 298.2 K): 0.000135 | solubility (mole fraction) (in water, 303.2 K): 0.000168 | solubility (mole fraction) (in water, 308.2 K): 0.000191 | solubility (mole fraction) (in water, 313.2 K): 0.000306 | solubility (mole fraction) (in water, 318.2 K): 0.000422 | solubility (mole fraction) (in water, 323.2 K): 0.000577 | solubility (mole fraction) (in water, 328.2 K): 0.000803

C[C@@H]1CC[C@@]2(OC1)O[C@H]1C[C@H]3[C@@H]4CC=C5C[C@@H](O)CC[C@]5(C)[C@H]4CC[C@]3(C)[C@H]1[C@@H]2C
solubility (mole fraction) (in 2-aminoethanol, 293.2 K): 0.00142 | solubility (mole fraction) (in 2-aminoethanol, 298.2 K): 0.00218 | solubility (mole fraction) (in 2-aminoethanol, 303.2 K): 0.0042 | solubility (mole fraction) (in 2-aminoethanol, 308.2 K): 0.00625 | solubility (mole fraction) (in 2-aminoethanol, 313.2 K): 0.00807 | solubility (mole fraction) (in 2-aminoethanol, 318.2 K): 0.00914 | solubility (mole fraction) (in 2-aminoethanol, 323.2 K): 0.011 | solubility (mole fraction) (in 2-aminoethanol, 328.2 K): 0.0132 | solubility (mole fraction) (in DMF, 293.2 K): 0.00113 | solubility (mole fraction) (in DMF, 298.2 K): 0.00159 | solubility (mole fraction) (in DMF, 303.2 K): 0.00232 | solubility (mole fraction) (in DMF, 308.2 K): 0.00369 | solubility (mole fraction) (in DMF, 313.2 K): 0.00461 | solubility (mole fraction) (in DMF, 318.2 K): 0.00587 | solubility (mole fraction) (in DMF, 323.2 K): 0.00794 | solubility (mole fraction) (in DMF, 328.2 K): 0.0116 | solubility (mole fraction) (in NMP, 293.2 K): 0.0118 | solubility (mole fraction) (in NMP, 298.2 K): 0.0128 | solubility (mole fraction) (in NMP, 303.2 K): 0.0138 | solubility (mole fraction) (in NMP, 308.2 K): 0.0148 | solubility (mole fraction) (in NMP, 313.2 K): 0.0163 | solubility (mole fraction) (in NMP, 318.2 K): 0.0178 | solubility (mole fraction) (in NMP, 323.2 K): 0.0196 | solubility (mole fraction) (in NMP, 328.2 K): 0.0219 | solubility (mole fraction) (in acetonitrile, 293.2 K): 0.00359 | solubility (mole fraction) (in acetonitrile, 298.2 K): 0.00529 | solubility (mole fraction) (in acetonitrile, 303.2 K): 0.00675 | solubility (mole fraction) (in acetonitrile, 308.2 K): 0.00894 | solubility (mole fraction) (in acetonitrile, 313.2 K): 0.0125 | solubility (mole fraction) (in acetonitrile, 318.2 K): 0.0151 | solubility (mole fraction) (in acetonitrile, 323.2 K): 0.0188 | solubility (mole fraction) (in acetonitrile, 328.2 K): 0.0221 | solubility (mole fraction) [1]: 0.00663 | solubility (mole fraction) [2]: 0.00809 | solubility (mole fraction) [3]: 0.00976 | solubility (mole fraction) [4]: 0.012 | solubility (mole fraction) [5]: 0.0147 | solubility (mole fraction) [6]: 0.0162 | solubility (mole fraction) [7]: 0.0181 | solubility (mole fraction) [8]: 0.0198 | solubility (mole fraction) (in n-dodecane, 293.2 K): 0.000266 | solubility (mole fraction) (in n-dodecane, 298.2 K): 0.000351 | solubility (mole fraction) (in n-dodecane, 303.2 K): 0.000439 | solubility (mole fraction) (in n-dodecane, 308.2 K): 0.000542 | solubility (mole fraction) (in n-dodecane, 313.2 K): 0.000631 | solubility (mole fraction) (in n-dodecane, 318.2 K): 0.000743 | solubility (mole fraction) (in n-dodecane, 323.2 K): 0.000898 | solubility (mole fraction) (in n-dodecane, 328.2 K): 0.00105 | solubility (mole fraction) (in n-hexadecane, 293.2 K): 0.000256 | solubility (mole fraction) (in n-hexadecane, 298.2 K): 0.000373 | solubility (mole fraction) (in n-hexadecane, 303.2 K): 0.000465 | solubility (mole fraction) (in n-hexadecane, 308.2 K): 0.000626 | solubility (mole fraction) (in n-hexadecane, 313.2 K): 0.000949 | solubility (mole fraction) (in n-hexadecane, 318.2 K): 0.00131 | solubility (mole fraction) (in n-hexadecane, 323.2 K): 0.00171 | solubility (mole fraction) (in n-hexadecane, 328.2 K): 0.00244 | solubility (mole fraction) (in n-nonanol, 293.2 K): 0.0067 | solubility (mole fraction) (in n-nonanol, 298.2 K): 0.00825 | solubility (mole fraction) (in n-nonanol, 303.2 K): 0.00965 | solubility (mole fraction) (in n-nonanol, 308.2 K): 0.011 | solubility (mole fraction) (in n-nonanol, 313.2 K): 0.0123 | solubility (mole fraction) (in n-nonanol, 318.2 K): 0.0132 | solubility (mole fraction) (in n-nonanol, 323.2 K): 0.0145 | solubility (mole fraction) (in n-nonanol, 328.2 K): 0.0155 | solubility (mole fraction) (in n-octane, 293.2 K): 8.1e-05 | solubility (mole fraction) (in n-octane, 298.2 K): 0.00013 | solubility (mole fraction) (in n-octane, 303.2 K): 0.00016 | solubility (mole fraction) (in n-octane, 308.2 K): 0.00021 | solubility (mole fraction) (in n-octane, 313.2 K): 0.000302 | solubility (mole fraction) (in n-octane, 318.2 K): 0.000466 | solubility (mole fraction) (in n-octane, 323.2 K): 0.00068 | solubility (mole fraction) (in n-octane, 328.2 K): 0.000915 | solubility (mole fraction) (in n-octanol, 293.2 K): 0.00348 | solubility (mole fraction) (in n-octanol, 298.2 K): 0.00423 | solubility (mole fraction) (in n-octanol, 303.2 K): 0.00516 | solubility (mole fraction) (in n-octanol, 308.2 K): 0.0066 | solubility (mole fraction) (in n-octanol, 313.2 K): 0.00842 | solubility (mole fraction) (in n-octanol, 318.2 K): 0.00947 | solubility (mole fraction) (in n-octanol, 323.2 K): 0.0104 | solubility (mole fraction) (in n-octanol, 328.2 K): 0.0116 | solubility (mole fraction) (in sec-butanol, 293.2 K): 0.000128 | solubility (mole fraction) (in sec-butanol, 298.2 K): 0.000229 | solubility (mole fraction) (in sec-butanol, 303.2 K): 0.000436 | solubility (mole fraction) (in sec-butanol, 308.2 K): 0.000784 | solubility (mole fraction) (in sec-butanol, 313.2 K): 0.00119 | solubility (mole fraction) (in sec-butanol, 318.2 K): 0.0017 | solubility (mole fraction) (in sec-butanol, 323.2 K): 0.00253 | solubility (mole fraction) (in sec-butanol, 328.2 K): 0.00366
